From patent US20260248927A1, “TARGETED PROTEIN DEGRADATION USING BIFUNCTIONAL COMPOUNDS THAT BIND UBIQUITIN LIGASE AND TARGET MCL-1 PROTEIN” (Captor Therapeutics S.A., priority 2022, published 2026) come the findings set out here.

In data set [1] the target is [MCL-1]-[compound of formula (I)]—[CRBN/DDB1] (Homo sapiens, UniProt Q07820+Q96SW2). The data set can be described thus: HTRF ternary complex formation assay. Type of data set: binding. Particulars: hMcl-1 and CRBN, 180 min at 25° C.; read-out: HTRF ternary complex Average pEC50 by molecule (converted). How it is done:
The effect of the bifunctional compounds of the invention on the formation of a ternary complex composed of [MCL-1]-[compound of formula (I)]—[CRBN/DDB1] was investigated with HTRF ternary complex assay.
Mix of protein solution was prepared: • 48 nM hMcl-1 and 105.6 nM CRBN were prepared in PPI Europium detection buffer with 2 mM DTT. • Acceptor and donor stock solutions were diluted 100 times in PPI Europium detection buffer. Equal volumes of both reagents were mixed. Finally giving 3 nM of Streptavidin-Eu cryptate ([…]) and 6.67 nM of Anti-6×his-d2 ([…]).
5 μl of protein mix was dispensed to all wells. The tested compounds in dose-response were dispensed onto a white 384-well low volume plate (Greiner, 784075). DMSO was backfilled to all wells, resulting in a final DMSO content of 0.5%. Wells containing only DMSO served as a background. Next, 5 μl of solution with donor and acceptor was added to the wells.
The plate was sealed with transparent film and shaken using a VibroTurbulator for 60 sec at level 3. The plate was then spun down shortly (10 s, 1000 rcf) and incubated at 25° C. for 180 min.
The read-out was performed with plate reader (Pherastar, BMG Labtech) in time resolved fluorescence mode. Filterset: TR 337 665 620.
The results were analyzed as follows: • 1) an average of fluorescence for background signal was calculated and used as a negative control; • 2) raw fluorescence values for tested compounds were normalized against negative controls; • 3) bell shape curve was fitted to a gaussian distribution using a non-linear least squares Gauss-Newton algorithm; • 4) EC50 and pEC50 values were determined.
On the technique in general: TR-FRET usually uses a lanthanide donor and a delayed reading to cut background.

The nature of data set [2]: Cell viability assay (CellTiter-Glo), ARH-77. Type of data set: cell-based. Particulars: human, ARH-77 cells (lymphoblast-like, MCL-1 independent), ARH-77, 24 hours, 1% FBS, read-out: Average pCC50 by molecule ARH-77 (converted). The text has this:
(§1) The effect of various compounds of the invention on the viability of MV4-11 and ARH-77 cell lines was investigated, using the CTG protocol described below.
(§2) MV4-11 cell lines are derived from acute myeloid leukaemia and it is described in the literature as a MCL-1 dependent cell line, as opposed to lymphoblast-like ARH-77 cell line, which is described as independent of MCL-1 (Tron A E et al. Nat Commun. 2018; 9: 5341; Caenepeel S et al. Cancer Discov. 2018 December; 8(12): 1582-1597).
(§3) Cells (MV4-11 or ARH-77) were seeded on […] in a growth medium with 1% FBS. Next, compound stocks were pre-diluted in DMSO and added directly to the cell culture media (final DMSO concentration: 0.5%). Compound concentrations used in this assay: 1/3 dilutions starting at 30 μM (9 to 12 points). After 24 hours of incubation, cell viability was evaluated using CellTiter-Glo Luminescent Cell Viability Assay (Promega, cat #G7572). The luminescence signal was measured using a CLARIOstar Plus Multi-Mode Microplate Reader (574-590 nm).
(§4) Results were normalized to DMSO control. Collected data were analyzed using GraphPad Prism to calculate pCC50 values.

The next data set relates to MV4-11 cells. The data set can be described thus: Cell viability assay (CellTiter-Glo), MV4-11. Type of data set: cell-based. The settings on record: Homo sapiens, MV4-11, 24 hours, 1% FBS, read-out: Average pCC50 by molecule MV4-11 (converted).
Source text: as §1, §2, §3, §4

SMILES strings stand for the structures. A value given as a limit tells only on which side of the number the result lay.

[MCL-1]-[compound of formula (I)]—[CRBN/DDB1], sequence (Q07820 whole entry): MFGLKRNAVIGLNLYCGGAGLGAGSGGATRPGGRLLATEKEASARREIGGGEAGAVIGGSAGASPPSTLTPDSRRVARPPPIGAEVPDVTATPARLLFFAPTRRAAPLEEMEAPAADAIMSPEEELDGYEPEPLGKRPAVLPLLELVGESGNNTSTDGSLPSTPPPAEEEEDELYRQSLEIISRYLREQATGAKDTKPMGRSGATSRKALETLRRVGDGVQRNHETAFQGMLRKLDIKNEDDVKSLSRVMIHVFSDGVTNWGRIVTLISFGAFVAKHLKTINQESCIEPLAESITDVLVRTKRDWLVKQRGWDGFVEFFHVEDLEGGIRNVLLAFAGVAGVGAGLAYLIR
[MCL-1]-[compound of formula (I)]—[CRBN/DDB1], sequence (Q96SW2 whole entry): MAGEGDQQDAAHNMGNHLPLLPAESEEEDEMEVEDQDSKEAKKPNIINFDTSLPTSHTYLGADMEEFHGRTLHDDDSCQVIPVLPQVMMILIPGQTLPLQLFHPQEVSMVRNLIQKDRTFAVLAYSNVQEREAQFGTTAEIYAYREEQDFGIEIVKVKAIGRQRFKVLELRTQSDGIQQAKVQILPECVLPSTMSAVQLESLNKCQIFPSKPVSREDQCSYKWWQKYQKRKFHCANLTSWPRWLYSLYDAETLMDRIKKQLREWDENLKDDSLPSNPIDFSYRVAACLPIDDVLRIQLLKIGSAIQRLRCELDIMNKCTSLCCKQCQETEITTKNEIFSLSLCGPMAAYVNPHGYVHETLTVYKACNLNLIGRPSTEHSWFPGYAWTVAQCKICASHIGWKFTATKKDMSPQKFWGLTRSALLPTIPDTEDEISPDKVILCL
[MCL-1]-[compound of formula (I)]—[CRBN/DDB1], sequence (Q16531 whole entry partner): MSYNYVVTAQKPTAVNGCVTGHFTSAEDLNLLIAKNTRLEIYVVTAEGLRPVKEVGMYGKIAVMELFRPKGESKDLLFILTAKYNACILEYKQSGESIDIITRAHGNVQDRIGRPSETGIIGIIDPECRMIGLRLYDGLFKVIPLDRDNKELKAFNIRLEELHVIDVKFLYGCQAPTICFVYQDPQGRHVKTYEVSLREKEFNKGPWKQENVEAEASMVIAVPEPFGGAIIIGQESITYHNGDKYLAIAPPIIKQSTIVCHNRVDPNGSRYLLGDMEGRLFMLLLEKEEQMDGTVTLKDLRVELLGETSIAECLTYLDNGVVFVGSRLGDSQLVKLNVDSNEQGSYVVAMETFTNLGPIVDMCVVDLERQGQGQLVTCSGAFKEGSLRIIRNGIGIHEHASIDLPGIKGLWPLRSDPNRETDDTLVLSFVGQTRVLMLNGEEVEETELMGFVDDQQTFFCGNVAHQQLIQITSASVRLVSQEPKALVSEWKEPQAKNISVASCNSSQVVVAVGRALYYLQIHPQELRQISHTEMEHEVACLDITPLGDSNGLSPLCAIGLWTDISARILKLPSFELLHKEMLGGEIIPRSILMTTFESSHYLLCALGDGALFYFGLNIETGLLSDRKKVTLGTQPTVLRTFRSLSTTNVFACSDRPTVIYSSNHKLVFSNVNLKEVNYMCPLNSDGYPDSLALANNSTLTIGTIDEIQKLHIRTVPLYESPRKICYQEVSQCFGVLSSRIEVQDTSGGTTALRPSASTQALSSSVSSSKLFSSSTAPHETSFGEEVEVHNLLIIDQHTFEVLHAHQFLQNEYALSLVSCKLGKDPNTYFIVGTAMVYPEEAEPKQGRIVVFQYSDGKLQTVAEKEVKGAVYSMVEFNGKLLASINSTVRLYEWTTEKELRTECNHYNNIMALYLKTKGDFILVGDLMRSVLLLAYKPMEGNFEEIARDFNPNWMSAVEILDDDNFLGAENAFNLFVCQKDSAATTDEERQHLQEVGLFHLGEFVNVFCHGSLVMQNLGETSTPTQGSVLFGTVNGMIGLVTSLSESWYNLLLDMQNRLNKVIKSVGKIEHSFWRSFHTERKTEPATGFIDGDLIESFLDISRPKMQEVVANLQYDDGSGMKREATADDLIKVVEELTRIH

As for `Cc1nc2c(OCC(=O)N3CCN(CCn4c(C(=O)O)c(CCCOc5cccc6cc(F)ccc56)c5ccc(Cl)c(-c6c(C)nn(C)c6C)c54)CC3)cccc2cc1C1CCC(=O)NC1=O` (stereo not drawn) [Compound 4, 6-Chloro-1-{2-[4-(2-{[3-(2,6-dioxopiperidin-3-yl)-2-methylquinolin-8-yl]oxy}acetyl)piperazin-1-yl]ethyl}-3-{3-[(6-fluoronaphthalen-1-yl)oxy]propyl}-7-(1,3,5-trimethyl-1H-pyrazol-4-yl)-1H-indole-2-carboxylic acid], the EC50 in data set [1] was less than 100 nM. The CC50 at 24 h in data set [2] is more than 10000 nM. For the same molecule, the CC50 with MV4-11 cells was less than 316 nM.
In the same order, the values of `Cc1nc2cc(C(=O)NCC(=O)N3CCN(CCn4c(C(=O)O)c(CCCOc5cccc6cc(F)ccc56)c5ccc(Cl)c(-c6c(C)nn(C)c6C)c54)CC3)ccc2cc1C1CCC(=O)NC1=O` (stereo not drawn) [Compound 6, 6-Chloro-1-(2-(4-((3-(2,6-dioxopiperidin-3-yl)-2-methylquinoline-7-carbonyl)glycyl)piperazin-1-yl)ethyl)-3-(3-((6-fluoronaphthalen-1-yl)oxy)propyl)-7-(1,3,5-trimethyl-1H-pyrazol-4-yl)-1H-indole-2-carboxylic acid] are less than 100 nM, more than 10000 nM and less than 100 nM.
The like results for `COc1ccc2c(c1OCC(=O)N1CCN(CCn3c(C(=O)O)c(CCCOc4cccc5cc(F)ccc45)c4ccc(Cl)c(-c5c(C)nn(C)c5C)c43)CC1)CN(C1CCC(=O)NC1=O)C2=O` (stereo not drawn) [Compound 7, 6-Chloro-1-{2-[4-(2-{[2-(2,6-dioxopiperidin-3-yl)-5-methoxy-1-oxo-2,3-dihydro-1H-isoindol-4-yl]oxy}acetyl)piperazin-1-yl]ethyl}-3-{3-[(6-fluoronaphthalen-1-yl)oxy]propyl}-7-(1,3,5-trimethyl-1H-pyrazol-4-yl)-1H-indole-2-carboxylic acid] were, in that order, less than 100 nM, more than 10000 nM and less than 100 nM.
For `Cc1nn(C)c(C)c1-c1c(Cl)ccc2c(CCCOc3cccc4cc(F)ccc34)c(C(=O)O)n(CCN3CCN(C(=O)COc4c(N(C)C)ccc5c4CN(C4CCC(=O)NC4=O)C5=O)CC3)c12` (stereo not drawn) [Compound 10, 6-Chloro-1-(2-(4-(2-((5-(dimethylamino)-2-(2,6-dioxopiperidin-3-yl)-1-oxoisoindolin-4-yl)oxy)acetyl)piperazin-1-yl)ethyl)-3-(3-((6-fluoronaphthalen-1-yl)oxy)propyl)-7-(1,3,5-trimethyl-1H-pyrazol-4-yl)-1H-indole-2-carboxylic acid], the EC50 in data set [1] is less than 316 nM. Besides, the CC50 at 24 h in data set [2] was more than 10000 nM. Also, the CC50 in the data set with MV4-11 cells is less than 316 nM.
Consider `Cc1nn(C)c(C)c1-c1c(Cl)ccc2c(CCCOc3cccc4cc(F)ccc34)c(C(=O)O)n(CCN3CCN(C(=O)COc4cc(N)cc5c4CN(C4CCC(=O)NC4=O)C5=O)CC3)c12` (stereo not drawn) [Compound 11, 1-{2-[4-(2-{[6-Amino-2-(2,6-dioxopiperidin-3-yl)-1-oxo-2,3-dihydro-1H-isoindol-4-yl]oxy}acetyl)piperazin-1-yl]ethyl}-6-chloro-3-{3-[(6-fluoronaphthalen-1-yl)oxy]propyl}-7-(1,3,5-trimethyl-1H-pyrazol-4-yl)-1H-indole-2-carboxylic acid], for which the EC50 in data set [1] was less than 316 nM. In addition, in data set [2], the CC50 at 24 h was more than 10000 nM. Moreover, the CC50 with MV4-11 cells was less than 100 nM.
For `CNc1cc(OCC(=O)N2CCN(CCn3c(C(=O)O)c(CCCOc4cccc5cc(F)ccc45)c4ccc(Cl)c(-c5c(C)nn(C)c5C)c43)CC2)c2c(c1)C(=O)N(C1CCC(=O)NC1=O)C2` (stereo not drawn) [Compound 12, 6-Chloro-1-(2-(4-(2-((2-(2,6-dioxopiperidin-3-yl)-6-(methylamino)-1-oxoisoindolin-4-yl)oxy)acetyl)piperazin-1-yl)ethyl)-3-(3-((6-fluoronaphthalen-1-yl)oxy)propyl)-7-(1,3,5-trimethyl-1H-pyrazol-4-yl)-1H-indole-2-carboxylic acid], the EC50 in data set [1] was less than 316 nM. Further, the CC50 at 24 h in data set [2] is more than 31600 nM. Moreover, the CC50 in the data set with MV4-11 cells is less than 100 nM.
In the same order, the values of `Cc1nn(C)c(C)c1-c1c(Cl)ccc2c(CCCOc3cccc4cc(F)ccc34)c(C(=O)O)n(CCN3CCN(C(=O)COc4cc(N5CCCCC5)cc5c4CN(C4CCC(=O)NC4=O)C5=O)CC3)c12` (stereo not drawn) [Compound 14, 6-Chloro-1-{2-[4-(2-{[2-(2,6-dioxopiperidin-3-yl)-1-oxo-6-(piperidin-1-yl)-2,3-dihydro-1H-isoindol-4-yl]oxy}acetyl)piperazin-1-yl]ethyl}-3-{3-[(6-fluoronaphthalen-1-yl)oxy]propyl}-7-(1,3,5-trimethyl-1H-pyrazol-4-yl)-1H-indole-2-carboxylic acid] are less than 31.6 nM, more than 3160 nM and less than 316 nM.
For the molecule `Cc1nn(C)c(C)c1-c1c(Cl)ccc2c(CCCOc3cccc4cc(F)ccc34)c(C(=O)O)n(CCN3CCN(C(=O)COc4cccc5c4C(C)N(C4CCC(=O)NC4=O)C5=O)CC3)c12` (stereo not drawn) [Compound 15, 6-Chloro-1-{2-[4-(2-{[2-(2,6-dioxopiperidin-3-yl)-3-methyl-1-oxo-2,3-dihydro-1H-isoindol-4-yl]oxy}acetyl)piperazin-1-yl]ethyl}-3-{3-[(6-fluoronaphthalen-1-yl)oxy]propyl}-7-(1,3,5-trimethyl-1H-pyrazol-4-yl)-1H-indole-2-carboxylic acid], the EC50 in data set [1] was less than 316 nM. For the same molecule, the CC50 at 24 h in data set [2] is more than 10000 nM. Moreover, in the data set on MV4-11 cells, the CC50 is less than 100 nM.
The like results for `Cc1nn(C)c(C)c1-c1c(Cl)ccc2c(CCCOc3cccc4cc(F)ccc34)c(C(=O)O)n(CCN3CCN(C(=O)COc4ccc5c6c(cccc46)C(=O)N5C4CCC(=O)NC4=O)CC3)c12` (stereo not drawn) [Compound 21, 6-Chloro-1-(2-(4-(2-((1-(2,6-dioxopiperidin-3-yl)-2-oxo-1,2-dihydrobenzo[cd]indol-6-yl)oxy)acetyl)piperazin-1-yl)ethyl)-3-(3-((6-fluoronaphthalen-1-yl)oxy)propyl)-7-(1,3,5-trimethyl-1H-pyrazol-4-yl)-1H-indole-2-carboxylic acid] were, in that order, less than 31.6 nM, more than 10000 nM and less than 316 nM.
The like results for `Cc1nn(C)c(C)c1-c1c(Cl)ccc2c(CCCOc3cccc4cc(F)ccc34)c(C(=O)O)n(CCN3CCN(C(=O)COc4ccc5c(c4)n(C)c(=O)n5C4CCC(=O)NC4=O)CC3)c12` (stereo not drawn) [Compound 22, 6-Chloro-1-(2-(4-(2-((1-(2,6-dioxopiperidin-3-yl)-3-methyl-2-oxo-2,3-dihydro-1H-benzo[d]imidazol-5-yl)oxy)acetyl)piperazin-1-yl)ethyl)-3-(3-((6-fluoronaphthalen-1-yl)oxy)propyl)-7-(1,3,5-trimethyl-1H-pyrazol-4-yl)-1H-indole-2-carboxylic acid] were, in that order, less than 100 nM, more than 31600 nM and less than 31.6 nM.
In the same order, the values of `Cc1nn(C)c(C)c1-c1c(Cl)ccc2c(CCCOc3cccc4cc(F)ccc34)c(C(=O)O)n(CCN3CCN(C(=O)COc4cccc5c4n(C)c(=O)n5C4CCC(=O)NC4=O)CC3)c12` (stereo not drawn) [Compound 23, 6-Chloro-1-(2-(4-(2-((1-(2,6-dioxopiperidin-3-yl)-3-methyl-2-oxo-2,3-dihydro-1H-benzo[d]imidazol-4-yl)oxy)acetyl)piperazin-1-yl)ethyl)-3-(3-((6-fluoronaphthalen-1-yl)oxy)propyl)-7-(1,3,5-trimethyl-1H-pyrazol-4-yl)-1H-indole-2-carboxylic acid] are less than 316 nM, more than 10000 nM and less than 31.6 nM.
